Series [1] is described as follows: Intrinsic clearance, rat liver microsomes. To be noted: for microsomal CLint: Table 3, read-out: Rat Liver microsomes CL; for half-life: read-out: Rat Liver microsomes t1/2. The format is in vitro ADME. Background: Liver microsomes are a subcellular fraction often used to study metabolism.
Series [2] in a line: Intrinsic clearance, human liver microsomes. The class given is in vitro ADME. To be noted: for microsomal CLint: Table 3, read-out: Human Liver microsomes CL; for half-life: read-out: Human Liver microsomes t1/2.
Series [3] is described as follows: Intrinsic clearance, rat hepatocytes. The format is in vitro ADME. Particulars: hepatocytes; for hepatocyte CLint: Table 3, read-out: Rat Hepatocytes CL; for half-life: read-out: Rat Hepatocytes t1/2.
A short description of series [4]: Intrinsic clearance, human hepatocytes. The format is in vitro ADME. Particulars: hepatocytes; for hepatocyte CLint: Table 3, read-out: Human Hepatocytes CL; for half-life: read-out: Human Hepatocytes t1/2.
The target in series [5] is Cyp A (Homo sapiens, UniProt P62937).
Chain of Cyp A (P62937 whole entry): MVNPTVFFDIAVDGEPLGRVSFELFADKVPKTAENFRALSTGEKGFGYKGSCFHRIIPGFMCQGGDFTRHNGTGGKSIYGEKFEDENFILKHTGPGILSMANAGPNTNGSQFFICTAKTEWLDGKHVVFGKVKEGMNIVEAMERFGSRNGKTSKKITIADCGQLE
Procedure: (§1) The cyclophilin binding properties of the compounds were assessed by Surface Plasmon Resonance (SPR) against Cyp A, B and D isoforms (Table 1, representative sensorgrams are shown in Figure 3A).[35]
Surface Plasmon Resonance (SPR)
(§2) SPR measurements were performed on a Biacore T200 instrument (Cytiva). Ni2+ -
(§3) nitrilotriacetic acid (NTA) sensor chips, 1-ethyl-3-(3-diaminopropyl) carbodiimide
(§4) hydrochloride (EDC) and N hydroxy succinimide (NHS) were purchased from Cytiva.
(§5) Immobilization and covalent stabilization of His-Cyps Pure His-cyclophilins on the NTA
(§6) sensor chip was performed essentially as described. [Wear et al., 2017, FEBS OpenBio], using
(§7) 200 nM concentrations of each protein, in Running Buffer (PBS, pH7.4; 0.05 % surfactant P20,
(§8) 2% v/v ethanol; 50 µM EDTA), at 30 µl min-1 with 60 second contact times on the activated
(§9) NTA surfaces. This gave signals of 1,921 RU for His-CypA, 1932 RU for His-CypB and 1,397
(§10) RU for His-CypD. Specific surface protein activity was assayed by passing saturating amounts
(§11) activity were obtained for His-CypA, -B and –D, respectively.
Kinetic titration experiments
(§12) Single cycle kinetic titration binding experiments were performed in triplicate at 25 °C. 3-fold
(§13) injected over the sensor surface, at 100 µl min-1 with a 90 s contact time and a 90 s dissociation
(§14) time. The sensor surface was regenerated between experiments by dissociating any formed
(§15) complex in running buffer for at least 1,200 seconds. The apparent on-rate (k+) and off-rate (k-
(§16) ) constants and the equilibrium dissociation constant (Kd) were calculated from reference
Series [6] has as its target Cyp D (Homo sapiens, UniProt P30405).
Procedure: as §1
Surface Plasmon Resonance (SPR)
as §2, §3, §4, §5, §6, §7, §8, §9, §10, §11
Kinetic titration experiments
as §12, §13, §14, §15, §16
In series [7] the target is T1, Cyp B (Homo sapiens, UniProt P23284). Briefly: biochemical.
T1 sequence (P23284 32-216 limits assumed): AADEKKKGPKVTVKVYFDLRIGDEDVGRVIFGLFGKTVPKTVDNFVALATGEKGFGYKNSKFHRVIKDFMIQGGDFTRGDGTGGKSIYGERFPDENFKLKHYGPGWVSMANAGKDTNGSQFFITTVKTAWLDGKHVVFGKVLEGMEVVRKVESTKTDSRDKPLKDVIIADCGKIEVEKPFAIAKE
Procedure: as §1
Surface Plasmon Resonance (SPR)
as §2, §3, §4, §5, §6, §7, §8, §9, §10, §11
Kinetic titration experiments
as §12, §13, §14, §15, §16
A short description of series [8]: Caco-2 permeability. To be noted: human, Caco-2. (Passage across Caco-2 layers is used to estimate intestinal permeability.)
Series [9] has as its system Caco-2. Briefly: Caco-2 permeability. To be noted: apparent permeability A-B.
Series [10] relates to Salmonella typhimurium TA98. Nature of the series: Ames fluctuation test TA98. Particulars: for Ames fluctuation test TA98 +S9: with rat liver S9; for Ames fluctuation test TA98 –S9: without S9.
Procedure: (§17) Bacterial cytotoxicity tests were carried out using Reverted Salmonella typhimurium strains
(§18) (TA98, TA100, TA1535, TA1537) that were incubated 96 hours at 37 Celsius. The results for
(§19) cytotoxicity are expressed as percent of control growth (OD650). Compounds with growth of
(§20) less than 60 % of control are flagged and considered cytotoxic.
(§21) Compounds were incubated for 96 hours at 37°C at 4 different concentrations (5 mM, 10 mM,
(§22) the absence and presence of rat liver S9 microsomes.
(§23) to the reversion of the histidine mutation (as judged by the ratio of OD430/OD570 being greater
(§24) than 1.0) are counted and recorded as positive counts. The significance of the positive counts
(§25) between the treatment (in the presence of test compound) and the control (in the absence of test
(§26) compound) are calculated using the one-tailed Fisher's exact test. Three significance levels are
(§27) Very strong positive, if p < 0.001, denoted as "+++"
(§28) Control experiments were carried out with 2-aminoanthracene (10 mM), 9-aminoacridine (10
(§29) mM), quercetin (30 mM) and streptozocitin (2.5 mM).
Series [11] relates to Salmonella typhimurium TA100. Nature of the series: Ames fluctuation test TA100. To be noted: for Ames fluctuation test TA100 +S9: with rat liver S9; for Ames fluctuation test TA100 –S9: without S9. On the technique in general: In the Ames test, an excess of revertant colonies over the control signals mutagenicity.
Procedure: as §17, §18, §19, §20, §21, §22, §23, §24, §25, §26, §27, §28, §29
Series [12] deals with Salmonella typhimurium TA1535. Briefly: Ames fluctuation test TA1535. Particulars: for Ames fluctuation test TA1535 +S9: with rat liver S9; for Ames fluctuation test TA1535 –S9: without S9.
Procedure: as §17, §18, §19, §20, §21, §22, §23, §24, §25, §26, §27, §28, §29
The subject of series [13] is Salmonella typhimurium TA1537. Nature of the series: Ames fluctuation test TA1537. Particulars: for Ames fluctuation test TA1537 +S9: with rat liver S9; for Ames fluctuation test TA1537 –S9: without S9.
Procedure: as §17, §18, §19, §20, §21, §22, §23, §24, §25, §26, §27, §28, §29
Series [14] is described as follows: Aqueous kinetic solubility, shake-flask.
Procedure: (§30) These experiments were subcontracted to Eurofins.
(§31) Kinetic solubility measurements were carried out using a shake-flask technique. Compounds
(§32) were incubated for 24 hours at room temperature. Aqueous solubility (μM) was determined by
(§33) comparing the peak area of the principal peak in a calibration standard (200 μM) containing
(§34) organic solvent (methanol/water, 60/40, v/v) with the peak area of the corresponding peak in a
(§35) buffer sample. In addition, chromatographic purity (%) was defined as the peak area of the
(§36) principal peak relative to the total integrated peak area in the HPLC chromatogram of the
(§37) calibration standard. A chromatogram of the calibration standard of each test compound, along
(§38) with a UV/VIS spectrum with labeled absorbance maxima, was generated.
(§39) These were measured using a shake-flask technique. Compounds were incubated for 60 min at
(§40) room temperature. The total amount of compound was determined as the peak area of the
(§41) principal peak in a calibration standard (100 μM) containing organic solvent (methanol/water,
(§42) 60/40, v/v). The amount of compound in buffer was determined as the combined, volume
(§43) corrected, and weighted areas of the corresponding peaks in the aqueous phases of three
(§44) organic-aqueous samples of different composition. An automated weighting system was used
(§45) to ensure the preferred use of raw data from those samples with well quantifiable peak signals.
(§46) The amount of compound in organic was calculated by subtraction. Subsequently, Log D was
(§47) calculated as the Log10 of the amount of compound in the organic phase divided by the amount
of compound in the aqueous phase.
The nature of series [15]: Partition coefficient (Log D), shake-flask. To be noted: octanol/water.
Procedure: as §30, §31, §32, §33, §34, §35, §36, §37, §38, §39, §40, §41, §42, §43, §44, §45, §46, §47
of compound in the aqueous phase.
In series [16] the test system is Salmonella typhimurium strains (TA98, TA100, TA1535, TA1537). Briefly: Ames tests, all strains (summary in words). To be noted: in absence and presence of liver S9 fractions.
Procedure: as §17, §18, §19, §20, §21, §22, §23, §24, §25, §26, §27, §28, §29
Series [17] has as its system iPSC-derived hepatocytes. Nature of the series: In vitro hepatic steatosis (MASH) assay. The format is cell-based. Particulars: 48 h treatment.
In series [18] the target is T1, Cyp B. Particulars: from SPR Kd.
Procedure: as §1
Surface Plasmon Resonance (SPR)
as §2, §3, §4, §5, §6, §7, §8, §9, §10, §11
Kinetic titration experiments
as §12, §13, §14, §15, §16
In series [19] the test system is permeabilised human hepatocyte (HepG2) cells. Briefly: Calcium Retention Capacity assay. Particulars: Homo sapiens; digitonin-permeabilised HepG2 cells; read-out: EC50 CRC assay. The format is cell-based.
Procedure: Calcium Retention Capacity Assay
The compounds were prepared as a 10 mM stock solution in 100% DMSO. Subsequent dilutions were made in 100% DMSO and then in assay buffer to 10-fold the final concentration.
HepG2 cells were permeabilized with 100 µM digitonin for 10 min in ice cold buffer containing 1mM EGTA. Following two wash steps to remove the digitonin, the cells were plated into 96 well black and clear plates at 106 cell per well in a 180 µL assay buffer containing 0.5 µM Calcium Green 5N. Compounds dilution were prepared in DMSO to 1000 fold the final concentration, diluted 1:100 in assay buffer and added to the assay as 20 µL per well. The assay buffer contained 5 mM glutamate and 2.5 mM malate. The cell plate was immediately run on the FLIPR Tetratm which added 5 µL of 200 µM (5 µM) calcium chloride every 5 minutes whilst reading the plate every 3 seconds. The area under the curve (AUC) of the raw trace was calculated at each concentration. AUC values were plotted against concentration and EC50 values calculated. Experiments were repeated three times and the EC50 value was determined from a curve fitted to the averaged replicates.
Where [20] appears, read: Kd Cyp B, SPR-derived dissociation constant, 25 °C.

Where two headings read alike, the source gives them in different places. Where only a bound is given, the exact number is not on record here.

The Kd is the free concentration of one partner at which half of the binding sites on the other are occupied at equilibrium, for simple one-to-one binding. A high value points to lower affinity. One may read the efflux ratio as the permeability from basolateral to apical divided by that in the opposite direction, in the common usage. By solubility is commonly meant how much of the substance goes into solution per volume. A higher solubility goes with a readily soluble substance. In general, logD refers to the decadic logarithm of the distribution of all forms, ionised or not, between an organic phase and buffer at a given pH. A word on the EC50: it is the concentration giving half of the maximal effect.

Chain of Cyp D (P30405 42-207): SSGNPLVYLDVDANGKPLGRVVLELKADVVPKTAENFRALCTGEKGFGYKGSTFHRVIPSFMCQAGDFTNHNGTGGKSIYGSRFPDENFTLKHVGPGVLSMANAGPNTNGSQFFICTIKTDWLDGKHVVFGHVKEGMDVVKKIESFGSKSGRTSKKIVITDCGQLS

As for `Cn1nnc(CN(Cc2ccc(N)c(Cl)c2)C(=O)NCC(=O)N2CCC[C@@H]2c2ccccc2Br)n1` [Compound 10, 1-[(4-Amino-3-chloro-phenyl)methyl]-1-[(2-methyltetrazol-5-yl)methyl]-3-[2-oxo-2-[(2R)-2-(2-bromophenyl)pyrrolidin-1-yl]ethyl]urea], the results for the microsomal CLint in series [1] and in series [2] were 238 µL/min/mg and 344 µL/min/mg, respectively. Further, the half-life in [1] was 29 min; in series [2] it was 20 min; in series [3], above 120 min; in [4], 85 min. Further, the hepatocyte CLint was below 8 µL/min/1e6 cells in series [3] and 12 µL/min/1e6 cells in series [4]. For the same molecule, the values for the Kd in series [5], in series [6] and in series [7] were 200 ± 40 nM, 580 ± 100 nM and 35 ± 6 nM, respectively. The efflux ratio in series [8] was 1.9. Moreover, in series [9], the “Caco-2 A-B” value was 6.6 10^–6 cm/s. In addition, the “Ames fluctuation test TA98 +S9” value in series [10] was “neg/neg”. Besides, the “Ames fluctuation test TA98 –S9” value in series [10] was “neg/neg”. Further, the “Ames fluctuation test TA100 +S9” value in [11] is reported as “neg/neg”. The “Ames fluctuation test TA100 –S9” value in series [11] is “neg/neg”. In addition, the “Ames fluctuation test TA1535 +S9” value in series [12] was “neg/neg”. Also, the “Ames fluctuation test TA1535 –S9” value in series [12] is reported as “neg/neg”. Further, the “Ames fluctuation test TA1537 +S9” value in series [13] was “neg/neg”. Moreover, the “Ames fluctuation test TA1537 –S9” value in series [13] is on record as “neg/neg”. Also, the solubility at 24 h in series [14] (PBS, pH 7.4) is above 200 µM; in [14] (simulated gastric fluid), above 200 µM; in series [14] (simulated intestinal fluid), above 200 µM. In [15], this molecule returned a pH-dependent lipophilicity (logD) at 1 h, 100 µM of 1.74. Moreover, in [16], the “Ames result in all strains tested” value was “negative”.
For the molecule `CSc1ccccc1[C@H]1CCCN1C(=O)CN1C(=O)N(Cc2ccc(N)c(Cl)c2)CC1=NNC(C)=O` [Compound 16, N-[[1-[(4-amino-3-chloro-phenyl)methyl]-2-oxo-3-[2-oxo-2-[(2R)-2-(2-methylsulfanylphenyl)pyrrolidin-1-yl]ethyl]imidazolidin-4-ylidene]amino]acetamide], the Kd worked out at 7100 ± 1250 nM in [5], 9100 ± 900 nM in [6] and 4500 ± 500 nM in series [7].
As to `CSc1ccccc1[C@H]1CCCN1C(=O)CNC(=O)N(Cc1cnc(N)nc1)Cc1nnc(C)s1` [Compound 13, 1-[(2-Aminopyrimidin-5-yl)methyl]-1-[(5-methyl-1,3,4-thiadiazol-2-yl)methyl]-3-[2-oxo-2-[(2R)-2-(2-methylsulfanylphenyl)pyrrolidin-1-yl]ethyl]urea], the results for the Kd in series [5], in series [6] and in series [7] were 670 ± 100 nM, 1200 ± 300 nM and 184 ± 7 nM, respectively.
The corresponding values for `CC(=O)NN=C1CN(Cc2cnc(N)c(Cl)c2)C(=O)N1CC(=O)N1CCC[C@@H]1c1ccccc1Br` [Compound 19, N-[[1-[(6-amino-5-chloro-3-pyridyl)methyl]-2-oxo-3-[2-oxo-2-[(2R)-2-(2-bromophenyl) Pyrrolidin-1-yl]ethyl]imidazolidin-4-ylidene]amino]acetamide] are above 10000 nM, above 10000 nM and above 10000 nM.
The corresponding values for `CC(=O)NN=C1CN(Cc2ccc(N)c(Cl)c2)C(=O)N1CC(=O)N1CCC[C@@H]1c1ccccc1Br` [Compound 17, N-[[1-[(4-amino-3-chloro-phenyl)methyl]-3-[2-[(2R)-2-(2-bromophenyl)pyrrolidin-1-yl]-2-oxo-ethyl]-2-oxo-imidazolidin-4-ylidene]amino]acetamide] are above 10000 nM, above 10000 nM and above 10000 nM.
Regarding `CSc1ccccc1[C@H]1CCCN1C(=O)CNC(=O)N(Cc1cnc(N)nc1)Cc1ncc(C)s1` [Compound 12, 1-[(2-Aminopyrimidin-5-yl)methyl]-1-[(5-methylthiazol-2-yl)methyl]-3-[2-oxo-2-[(2R)-2-(2-methylsulfanylphenyl)pyrrolidin-1-yl]ethyl]urea], in [17], the “effect on hepatocyte overall lipid levels and lipid droplet size (in words)” value is reported as “lack of potency”. In addition, in series [17] (Hepatocyte, 48 h, read-out: EC50 MASH assay), the EC50 is above 10000 nM. The microsomal CLint in [1] was 449 µL/min/mg; in series [2] it was 604 µL/min/mg. The half-life in series [1] turned out to be 15 min; in series [2], 11 min; in series [3], 84 min; in [4] it was 94 min. For the same molecule, the hepatocyte CLint in series [3] stood at 12 µL/min/1e6 cells; in series [4], 11 µL/min/1e6 cells. The Kd in series [5] was 7300 ± 1000 nM; in series [6], 1500 ± 500 nM; in series [7] (setting [20]), 88 ± 20 nM. For the same molecule, in series [18], the “selectivity for Cyp B over Cyp A” value was 80 fold. The efflux ratio in series [8] was 16. For the same molecule, the “Caco-2 A-B” value in series [9] is 0.8 10^–6 cm/s. The “Ames fluctuation test TA98 +S9” value in series [10] was “neg/neg”. Also, in [10], the “Ames fluctuation test TA98 –S9” value is “neg/neg”. Further, the “Ames fluctuation test TA100 +S9” value in series [11] is listed as “neg/neg”. Besides, the “Ames fluctuation test TA100 –S9” value in series [11] was “neg/neg”. Also, the “Ames fluctuation test TA1535 +S9” value in series [12] is listed as “neg/neg”. Moreover, the “Ames fluctuation test TA1535 –S9” value in [12] is recorded as “neg/neg”. The “Ames fluctuation test TA1537 +S9” value in [13] is on record as “neg/neg”. Besides, the “Ames fluctuation test TA1537 –S9” value in [13] is on record as “neg/neg”. Further, the solubility at 24 h in [14] (PBS, pH 7.4) was above 200 µM; in series [14] (simulated gastric fluid) it was above 200 µM; in series [14] (simulated intestinal fluid), above 200 µM. For the same molecule, the logD at 1 h, 100 µM in series [15] was 1.27. Further, the “Ames result in all strains tested” value in series [16] was “negative”.
`CSc1ccccc1[C@H]1CCCN1C(=O)CNC(=O)N(Cc1cnc(N)c(Cl)c1)Cc1nnc(C)s1` [Compound 14, 1-[(6-Amino-5-chloro-3-pyridyl)methyl]-1-[(5-methyl-1,3,4-thiadiazol-2-yl)methyl]-3-[2-oxo-2-[(2R)-2-(2-methylsulfanylphenyl)pyrrolidin-1-yl]ethyl]urea]: the Kd in [5] was 960 ± 130 nM; in series [6], 2400 ± 430 nM; in [7], 92 ± 75 nM.
The matching figures for `CSc1ccccc1[C@H]1CCCN1C(=O)CNC(=O)N(Cc1cc(F)c(N)c(F)c1)Cc1cn(C)nn1` [Compound 6, 1-[(4-Amino-3,5-difluoro-phenyl)methyl]-1-[(1-methyltriazol-4-yl)methyl]-3-[2-oxo-2-[(2R)-2-(2-methylsulfanylphenyl)pyrrolidin-1-yl]ethyl]urea]: 4600 ± 2400 nM, 2970 ± 800 nM and 630 ± 100 nM.
In the case of `C#CCN(Cc1cc(F)c(N)c(F)c1)C(=O)NCC(=O)N1CCC[C@@H]1c1ccccc1SC` [Compound 7, 1-[(4-Amino-3,5-difluoro-phenyl)methyl]-3-[2-oxo-2-[(2R)-2-(2-methylsulfanylphenyl)pyrrolidin-1-yl]ethyl]-1-prop-2-ynyl-urea], the Kd in series [5] was 8750 ± 2900 nM; in series [6], 5850 ± 2000 nM; in series [7], 3740 ± 780 nM.
The matching figures for `CSc1ccccc1[C@H]1CCCN1C(=O)CN1C(=O)N(Cc2cnc(N)c(Cl)c2)CC1=NNC(C)=O` [Compound 18, N-[[1-[(6-amino-5-chloro-3-pyridyl)methyl]-3-[2-[(2R)-2-(2-methylsulfanylphenyl) Pyrrolidin-1-yl]-2-oxo-ethyl]-2-oxo-imidazolidin-4-ylidene]amino]acetamide]: above 10000 nM, above 10000 nM and above 10000 nM.
For `CSc1ccccc1[C@H]1CCCN1C(=O)CNC(=O)N(Cc1cc(F)c(N)c(F)c1)Cc1nnn(C)n1` [Compound 5, 1-[(4-Amino-3,5-difluoro-phenyl)methyl]-1-[(2-methyltetrazol-5-yl)methyl]-3-[2-oxo-2-[(2R)-2-(2-methylsulfanylphenyl)pyrrolidin-1-yl]ethyl]urea], the Kd came to 1160 ± 200 nM in series [5], 1010 ± 120 nM in series [6] and 200 ± 40 nM in [7].
Take `CSc1ccccc1[C@H]1CCCN1C(=O)CNC(=O)N(Cc1ccc(N)cc1)Cc1nnn(C)n1` [Compound 2, 1-[(4-Aminophenyl)methyl]-1-[(2-methyltetrazol-5-yl)methyl]-3-[2-oxo-2-[(2R)-2-(2-methylsulfanylphenyl)pyrrolidin-1-yl]ethyl]urea]: the concentration for a half-maximal effect (EC50) in series [19] amounted to 1390 nM. For the same molecule, the results for the Kd in [5], in [6] and in series [7] were 90 ± 10 nM, 80 ± 10 nM and 12 ± 4 nM, respectively.
Regarding `CSc1ccccc1[C@@H]1CCCN1C(=O)CNC(=O)N(Cc1ccc2c(c1)[C@@H]1C[C@@H](N2)[C@H](O)CO1)Cc1nnn(C)n1` [Compound 4, 1-[[(1S,9R,10S)-10-Hydroxy-12-oxa-8-azatricyclo[7.3.1.0,^27]trideca-2,4,6-trien-4-yl]methyl]-3-[2-[(2S)-2-(2-methylsulfanylphenyl)pyrrolidin-1-yl]-2-oxo-ethyl]-1-[(2-methyltetrazol-5-yl)methyl]urea], the EC50 in series [19] is 4120 nM. The Kd in [5] came out at 310 ± 40 nM; in [6], 400 ± 30 nM; in [7] (setting [20]) it was 420 ± 80 nM.
